The source made the active and inactive calls. No rule for the calls is given here.

Consider 86 compounds from PubChem BioAssay AID1418 (Emory University Molecular Libraries Screening Center, 2008).

In the test the target is Induced myeloid leukemia cell differentiation protein Mcl-1 (Homo sapiens) (UniProt Q07820). The experiment in a line: blockers of Bid binding to Mcl-1 – biochemical, TR-FRET, dose response (AID 1418). The following applies: Mcl-1/Bid peptide binding, TR-FRET (europium/Dy647), 2 hr. For orientation: Time-resolved FRET reads energy transfer from a long-lived donor to a nearby acceptor.
Induced myeloid leukemia cell differentiation protein Mcl-1 (Homo sapiens), sequence (Q07820 whole entry, looked up): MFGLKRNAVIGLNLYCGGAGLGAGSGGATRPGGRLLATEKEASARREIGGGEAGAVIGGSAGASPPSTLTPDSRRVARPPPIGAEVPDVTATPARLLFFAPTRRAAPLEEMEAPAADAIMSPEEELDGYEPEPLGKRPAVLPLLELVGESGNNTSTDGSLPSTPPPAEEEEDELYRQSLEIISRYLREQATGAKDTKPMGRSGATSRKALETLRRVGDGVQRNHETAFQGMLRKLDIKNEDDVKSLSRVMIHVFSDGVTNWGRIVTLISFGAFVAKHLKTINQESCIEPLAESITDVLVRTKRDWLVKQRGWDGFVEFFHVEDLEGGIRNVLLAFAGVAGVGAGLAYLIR
Usually IC50 stands for the concentration that gives 50% inhibition. In the case of `O=C(Nn1cnnc1)c1ccccc1CCc1ccccc1`, the IC50 is > 54 µM (inactive).

In the case of `COc1ccc2[nH]c3c4c(ccc3c2c1)C(=O)C=CC4=O`, the IC50 was 2.51 µM. The result for `C#CCOCCOCCOCCNc1nc(N2CCN(C(=O)[C@H](CCC(=O)O)n3cc(C(N)CC(C)C)nn3)CC2)nc(N2CCN(C(=O)[C@H](CCC(=O)O)n3cc(C(N)CC(C)C)nn3)CC2)n1` (stereo partly specified) reads 15.2 µM; that for `O=C(O)CCN1C(=O)/C(=C/c2cn(-c3ccccc3)nc2-c2cccs2)SC1=S`, 6.79 µM.

Take `CC(Oc1ccc(Cl)cc1Cl)C(=O)N(C)c1ccccc1` (stereo unspecified): the IC50 is > 54 µM (inactive).

`COc1ccc(CN2C(=O)/C(=C/c3ccc(-c4ccc(Cl)c(C(=O)O)c4)o3)SC2=S)cc1`: the IC50 is 1.65 µM. The result for `Cc1ccc2oc(C(F)(F)C(F)F)cc(=O)c2c1` reads “inactive”; that for `CCc1ccc(CCC(=O)Nc2ccc(C)cc2C)o1`, > 54 µM (inactive). The result for `COC(=O)c1ccc(COC(=O)c2ccc(CS(=O)(=O)c3ccc(C)cc3)cc2)cc1` reads 1.3 µM; that for `COc1ccc2c(=O)c3c(=O)n(CCc4ccccc4)c(C(C)C)nc3oc2c1`, > 54 µM (inactive); that for `O=C(c1ccco1)N1C(=O)c2cccc3c(S(=O)(=O)N4CCCC4)ccc1c23`, > 54 µM (inactive). Then `CCOC(=O)C1CCCN(Cc2ccccc2OCC)C1` (stereo unspecified), with > 54 µM (inactive); and `CC(C)[n+]1ccn(C2=C([O-])c3ccccc3C(=O)/C2=N\S(=O)(=O)c2ccccc2)c1`, with > 54 µM (inactive); and `COc1ccc(-c2nc3ccccc3c(=O)n2CCOc2cccc(C)c2C)cc1`, with > 54 µM (inactive). For `Cc1ccc(Nc2cc(=O)n(C3CCCCC3)c(=O)[nH]2)cc1C`, the IC50 was > 54 µM (inactive). The result for `O=C(O)CCCCCN1C(=O)/C(=C\c2ccc(-c3ccc(Cl)cc3)o2)SC1=S` reads 16.5 µM; that for `O=C(CN1C(=O)S/C(=C\c2ccc(Cl)cc2)C1=O)NNC(=O)c1ccccc1O`, 7.45 µM; that for `CN1C(=O)/C(=C/c2ccccc2OCc2cccc(F)c2)NC1=S`, > 54 µM (inactive). Then `CCc1cccc(CC)c1NC(=S)N1CCn2cccc2C1c1cccnc1` (stereo unspecified), with > 54 µM (inactive); and `CN(Cc1ccccc1)Cc1nc2c([nH]1)c(=O)[nH]c(=O)n2C`, with > 54 µM (inactive). The result for `COc1ccc(NC(=O)CN2CCOCC2)cc1` reads > 54 µM (inactive); that for `CCCc1cc(=O)[nH]c(SCC(=O)c2c(C)[nH]c3ccccc23)n1`, > 54 µM (inactive); that for `CSC(=NCc1cccnc1)NS(=O)(=O)c1cccs1`, > 54 µM (inactive). For `COc1ccccc1C1C(C#N)=C(N)Oc2c1c(-c1ccccc1)nn2-c1ccccc1` (stereo unspecified), the IC50 was > 54 µM (inactive).

Take `O=C1NC(=O)N(c2ccc(F)cc2)C(=O)/C1=C/c1ccc2c(c1)CCCN2Cc1ccccc1`: the IC50 is 0.79 µM.

`COc1ccccc1NC(=O)c1sc2ncn(Cc3ccc(C)cc3)c(=O)c2c1C`: the 50% inhibitory concentration (IC50) is 7.75 µM. `COc1ccc2[nH]c(=O)c(CN(C(=O)C3CCCO3)c3ccc(C)c(C)c3)cc2c1` (stereo unspecified): the IC50 was > 54 µM (inactive). Then `O=C(COc1cccc2c1CCN(Cc1ccc(Br)cc1)C2=O)NCc1ccco1`, with > 54 µM (inactive). Then `COc1cccc(Nc2nc(NCC3CCCO3)c3ccccc3n2)c1` (stereo unspecified), with > 54 µM (inactive); and `O=S(=O)(NCc1ccccc1)c1cccc(S(=O)(=O)N2CCOCC2)c1`, with > 54 µM (inactive); and `NC(=O)N1CCN(C(=O)c2ccco2)CC1`, with > 54 µM (inactive). Then `CCOC(=O)CSc1nc(C2CC2)cc(-c2ccc(Cl)cc2)c1C#N`, with > 54 µM (inactive); and `CCOC(=O)c1c(/N=C/C2C(=O)NC(=S)NC2=O)sc(C)c1C`, with 2.08 µM.

For `CCCCN(Cc1cc2ccccc2[nH]c1=O)S(C)(=O)=O`, the IC50 is > 54 µM (inactive).

For the compound `O=C(N/N=C/C(Br)=C\c1ccccc1)c1ccco1`, the IC50 was > 54 µM (inactive).

`CC(C)[C@H](NC(=O)NCCC1=CCCCC1)C(=O)O`: the IC50 is > 54 µM (inactive).

Consider `CC(=O)c1ccc(Oc2ccc(C(C)=O)cc2)cc1`, for which the IC50 is > 54 µM (inactive).

With `COc1ccc(CN2C(=O)c3cccnc3C2Nc2ccc(OC)c(Cl)c2)cc1` (stereo unspecified), the IC50 is 0.74 µM. On to `O=C(COc1ccc2c(c1)CCC2)N1CCc2ccccc21`, for which the IC50 is > 54 µM (inactive). On to `O=[N+]([O-])c1cc(Cl)cc(/C=N/NC(=S)Nc2cc(S(=O)(=O)N3CCOCC3)ccc2Cl)c1O`, for which the IC50 was 7.3 µM. For the compound `Cc1nn(Cc2ccccc2)c(C)c1NC(=O)CSc1nc(-c2ccccc2)nc2c1cnn2-c1ccccc1`, the IC50 was 0.47 µM. For `Cc1ccc(/C=N/NC(=O)c2cc3c(ccc4ccccc43)o2)cc1[N+](=O)[O-]`, the IC50 was 11.1 µM. The result for `Cc1nnc(SCc2cc(=O)oc3ccc4ccccc4c23)n1Cc1ccccc1` reads > 54 µM (inactive); that for `CCCCN(Cc1cc2cc(OC)ccc2[nH]c1=O)C(=O)c1ccccn1`, > 54 µM (inactive); that for `CCc1cc(=O)oc2cc3occ(-c4ccc(OC)c(F)c4)c3cc12`, > 54 µM (inactive).

For the compound `O=C(O)CCc1nn2c3ccccc3n(CC(=O)c3ccccc3)c2nc1=O`, the IC50 was > 54 µM (inactive). With `Cc1sc(NC(=O)c2ccccc2)c(C(=O)N2CCN(C)CC2)c1C`, the IC50 was > 54 µM (inactive). The result for `CCOc1ccc2nc(N3C(=O)/C(=C/c4ccc(Cl)cc4)NC3=S)sc2c1` reads 2.43 µM; that for `CCOc1ccc(-c2ccc(/C=C3/C(=N)N4C=CSC4=NC3=O)o2)c([N+](=O)[O-])c1`, 0.86 µM. In the case of `Cc1cc(/C=N/NC(=O)c2cccs2)c(C)n1-c1ccccc1`, the IC50 is > 54 µM (inactive).

For `CCOC(=O)c1cc(-c2ccc(/C=C3/C(=O)NC(=O)C(C#N)=C3C)o2)ccc1Cl`, the IC50 was 0.79 µM.

On to `C[C@@H](C(=O)Nc1nc2ccc(F)cc2s1)N1C(=O)C2CC=CCC2C1=O` (stereo partly specified), for which the IC50 was > 54 µM (inactive). Then `C=CCn1cc(/C=N/NC(=O)COc2cccc3cccnc23)c2ccccc21`, with 3.38 µM; and `CCOc1cc(N2CCOCC2)c(OCC)cc1NC(=O)c1cc(-c2ccco2)nc2ccccc12`, with 12.5 µM.

As to `CCn1c(SCC(=O)NCc2ccco2)nnc1-c1ccc(N)cc1`, the IC50 was > 54 µM (inactive).

For the compound `O=C(O)c1ccc(CS(=O)(=O)Cc2ccccc2F)o1`, the IC50 was > 54 µM (inactive). Then `Clc1ccc(OCCCNCc2ccccc2)c(Br)c1`, with > 54 µM (inactive); and `O=c1[nH]c(-c2ccccc2Cl)nc2c1sc(=S)n2-c1ccccc1`, with > 54 µM (inactive).

Turning to `CCN1C(=O)/C(=C/c2cccs2)SC1=Nc1ccc(OC)cc1`, the IC50 is > 54 µM (inactive). The result for `CCOC(=O)c1[nH]cnc1C(=O)Nc1ccncc1` reads > 54 µM (inactive); that for `CC(Sc1nnc2c(n1)C1CCC2(C)C1(C)C)C(=O)Nc1ccccc1` (stereo unspecified), > 54 µM (inactive); that for `Cc1cccc(N2CCN(C(=S)Nc3ccc4nc(N5CCN(C)CC5)cc(C)c4c3)CC2)c1C`, 2.95 µM. Then `C=CC(c1ccccc1)C(C(=O)c1ccccc1)N(C)C` (stereo unspecified), with > 54 µM (inactive). In the case of `CSc1nc(N(CCO)CCO)c2sc3nc(-c4ccco4)c4c(c3c2n1)CCC4`, the IC50 is > 54 µM (inactive). The result for `Nc1c(C(=O)NCC2CCCO2)sc2nc3c(c(-c4ccco4)c12)CC/C3=C\c1ccco1` (stereo unspecified) reads > 54 µM (inactive); that for `NC(=S)N/N=C/c1coc2c(ccc3ccccc32)c1=O`, 4.99 µM. The result for `C=C1C(=O)[C@@]23[C@H](O)C[C@@H]4C(C)(C)CC[C@H](O)[C@]4(C)[C@@H]2C[C@H](O)[C@@H]1[C@H]3O` reads > 54 µM (inactive); that for `O=C(O)c1cc(N2N=C(C(F)(F)F)/C(=C/C=C/c3ccco3)C2=O)ccc1Cl`, 1.4 µM. Then `NS(=O)(=O)c1ccc(CCNC(=O)C(=O)c2c[nH]c3ccccc23)cc1`, with > 54 µM (inactive); and `CCN1C(=O)/C(=C\c2ccc(-c3ccc([N+](=O)[O-])cc3OC)o2)SC1=Nc1cccc(C(=O)O)c1`, with > 54 µM (inactive); and `Cc1cc(-c2nc3c4c5c(sc4[nH]c(=O)n3n2)CCC5)c(C)o1`, with > 54 µM (inactive). As to `CCOc1c(C(N)=O)c(-c2ccccc2)c2c(=O)[nH]c3ccccc3n12`, the IC50 was > 54 µM (inactive).

As for `O=C(c1cccc(Cl)c1)N1CCN(Cc2ccccc2F)CC1`, the IC50 was > 54 µM (inactive).

Regarding `O=c1c2ccccc2nc(CSc2nnnn2-c2ccccc2)n1-c1ccccc1`, the IC50 is 18.7 µM. Then `O=C(N=Nc1c(O)[nH]c2ccc(Cl)cc12)c1cc(-c2cccs2)nc2ccccc12`, with 0.57 µM; and `O=[N+]([O-])c1ccc(N/N=C/c2cn(Cc3ccc(F)cc3)c3ccccc23)nc1`, with > 54 µM (inactive); and `O=C(Cc1ccc(F)cc1)Nc1nnc(SCC(=O)NC2CCCC2)s1`, with > 54 µM (inactive).

With `NS(=O)(=O)c1ccc(N/N=C/c2ccc(O)c(O)c2O)c([N+](=O)[O-])c1`, the IC50 was 3.17 µM.

In the case of `Cc1ccc(Cn2nc(C)c(NC(=O)CSc3nc4c(c(C(F)(F)F)n3)CCc3ccccc3-4)c2C)cc1`, the IC50 was 1.91 µM. The result for `CN(C)S(=O)(=O)c1cc(S(=O)(=O)N(C)C)c(Cl)cc1N` reads > 54 µM (inactive); that for `COCCN1C(=O)C(=O)/C(=C(/O)c2ccc(S(=O)(=O)N3CCOCC3)cc2)C1c1cccc(Cl)c1` (stereo unspecified), > 54 µM (inactive).

As for `COc1ccc(CCNC(=O)c2ccc(=O)[nH]n2)cc1OC`, the IC50 was > 54 µM (inactive). For the compound `CN1/C(=C\C=C2C(=O)NC(=S)NC2=O)C(C)(C)c2ccccc21`, the IC50 is > 54 µM (inactive). Then `O=S(=O)(Nc1cccc(-c2cn3ccsc3n2)c1)c1ccc(F)cc1`, with > 54 µM (inactive); and `COc1ccc(C(=O)NCc2nnc(SCC(=O)N3CCCCC3)o2)cc1OC`, with > 54 µM (inactive); and `Cc1nc2sc(C(c3cccs3)N3CCOCC3)c(O)n2n1` (stereo unspecified), with > 54 µM (inactive).
